ChEMBL document CHEMBL5034011, “Discovery and Optimization of a 4-Aminopiperidine Scaffold for Inhibition of Hepatitis C Virus Assembly” (J Med Chem, 2021)
≈ marks a conversion by molar mass, not a printed value.

Experiments:
[1] = Kinetic aqueous solubility of compound by pION uSOL method at pH 7.4; conditions: buffer
[2] = Permeability of the compound by PAMPA method; assay type: ADME; conditions: for Papp: read-out: permeability
[3] = Cmax in CD-1 mouse brain at 1 mg/kg; assay type: ADME, organism-based; design: dose 1 mg/kg
[4] = AUClast in CD-1 mouse liver at 1 mg/kg; assay type: ADME, organism-based; design: time 0 - last, dose 1 mg/kg
[5] = AUClast in CD-1 mouse brain at 1 mg/kg; assay type: ADME, organism-based; design: time 0 - last, dose 1 mg/kg
[6] = Tmax in CD-1 mouse liver at 1 mg/kg; assay type: ADME, organism-based
[7] = Cmax in CD-1 mouse liver at 1 mg/kg; assay type: ADME, organism-based; design: dose 1 mg/kg
[8] = Tmax in CD-1 mouse plasma at 1 mg/kg; assay type: ADME, organism-based
[9] = Ratio of AUClast in brain to plasma in CD-1 mouse at 1 mg/kg; assay type: ADME, organism-based
[10] = Tmax in CD-1 mouse brain at 1 mg/kg; assay type: ADME, organism-based
[11] = Ratio of AUClast in liver to plasma in CD-1 mouse at 1 mg/kg; assay type: ADME, organism-based
[12] = AUClast in CD-1 mouse plasma at 1 mg/kg; assay type: ADME, organism-based; design: time 0 - last, dose 1 mg/kg
[13] = Tmax in CD-1 mouse liver at 10 mg/kg; assay type: ADME, organism-based
[14] = AUClast in CD-1 mouse liver at 10 mg/kg; assay type: ADME, organism-based; design: time 0 - last, dose 10 mg/kg
[15] = Tmax in CD-1 mouse brain at 10 mg/kg; assay type: ADME, organism-based
[16] = Ratio of AUClast in brain to plasma in CD-1 mouse at 10 mg/kg; assay type: ADME, organism-based
[17] = Cmax in CD-1 mouse liver at 10 mg/kg; assay type: ADME, organism-based; design: dose 10 mg/kg
[18] = Cmax in CD-1 mouse plasma at 10 mg/kg; assay type: ADME, organism-based; design: dose 10 mg/kg
[19] = AUClast in CD-1 mouse brain at 10 mg/kg; assay type: ADME, organism-based; design: time 0 - last, dose 10 mg/kg
[20] = Tmax in CD-1 mouse plasma at 10 mg/kg; assay type: ADME, organism-based
[21] = AUClast in CD-1 mouse plasma at 10 mg/kg; assay type: ADME, organism-based; design: time 0 - last, dose 10 mg/kg
[22] = Ratio of AUClast in liver to plasma in CD-1 mouse at 10 mg/kg; assay type: ADME, organism-based

Compound | solubility kinetic [1] | Papp [2] | further results
Clc1cc(CN(C2CCNCC2)C2CC(c3cccc(Br)c3)C2)ccc1Br (stereo not drawn) | 3.94 µg/mL (≈ 7.68 µM) | 14 ×10⁻⁶ cm/s | 
Cc1ccc(C2CC(N(Cc3ccc(Br)c(Cl)c3)C3CCC(N)CC3)C2)cc1 (stereo not drawn) |  | 818 ×10⁻⁶ cm/s | 
Clc1cccc(C2CC(N(Cc3ccc(Br)c(Cl)c3)C3CCNCC3)C2)c1 (stereo not drawn) | 4 µg/mL (≈ 8.54 µM) |  | 
Cc1ccc([C@H]2C[C@@H](N(Cc3ccc(Br)c(Cl)c3)C3CCNCC3)C2)cc1 | 9.71 µg/mL (≈ 21.7 µM) |  | 
Cc1ccc(C2CC(N(Cc3ccc(Br)c(Cl)c3)C3C4CCC3CNC4)C2)cc1 (stereo not drawn) | < 1 µg/mL |  | 
Cc1ccc(C2CC(N(Cc3ccc(Br)c(Cl)c3)C3CCN(C)CC3)C2)cc1 (stereo not drawn) | 22.9 µg/mL (≈ 49.7 µM) | 274 ×10⁻⁶ cm/s | 
Cc1ccc(C2CC(N(Cc3ccc(Br)c(Cl)c3)C3CC4CNC3C4)C2)cc1 (stereo not drawn) | 7.26 µg/mL (≈ 15.8 µM) | 123 ×10⁻⁶ cm/s | 
Cc1ccc([C@H]2C[C@H](N(Cc3ccc(Br)c(Cl)c3)C3CCNCC3)C2)cc1 | 1.09 µg/mL (≈ 2.43 µM) |  | Cmax [3]: 153 ng/mL; AUC(0-t) [4]: 9570 ng·h/mL; AUC(0-t) [5]: 3000 ng·h/mL; Tmax [6]: 2 h; Cmax [7]: 1850 ng/mL; Tmax [8]: 0.167 h; Kp [9]: 11; Tmax [10]: 1.5 h; Kp [11]: 35; AUC(0-t) [12]: 275 ng·h/mL
Clc1cc(CN(C2CCNCC2)C2CC(c3ccc(Br)cc3)C2)ccc1Br (stereo not drawn) | 3.32 µg/mL (≈ 6.48 µM) | 32 ×10⁻⁶ cm/s | Tmax [13]: 1 h; AUC(0-t) [14]: 793000 ng·h/mL; Tmax [15]: 24 h; Kp [16]: 54; Cmax [17]: 57400 ng/mL; Cmax [18]: 759 ng/mL; AUC(0-t) [19]: 56800 ng·h/mL; Tmax [20]: 0.5 h; AUC(0-t) [21]: 10500 ng·h/mL; Kp [22]: 76
CC(=O)N1CCC(N(Cc2ccc(Br)c(Cl)c2)C2CC(c3ccc(C)cc3)C2)CC1 (stereo not drawn) | < 1 µg/mL |  | permeability [2]: 1909 10^-6 cm/s
Fc1ccc(C2CC(N(Cc3ccc(Br)c(Cl)c3)C3CCNCC3)C2)cc1 (stereo not drawn) |  | 398 ×10⁻⁶ cm/s | 
Cc1cccc(C2CC(N(Cc3ccc(Br)c(Cl)c3)C3CCNCC3)C2)c1 (stereo not drawn) |  | 265 ×10⁻⁶ cm/s | 
Cc1ccc(C2CC(N(Cc3ccc(Br)c(Cl)c3)C3CC4CCC(C3)N4)C2)cc1 (stereo not drawn) | 11.1 µg/mL (≈ 23.4 µM) |  | 
Cc1ccc(C2CC(N(Cc3ccc(Br)c(Cl)c3)C3CCCNCC3)C2)cc1 (stereo not drawn) | 25.6 µg/mL (≈ 55.5 µM) | 666 ×10⁻⁶ cm/s | 
Cc1ccc(C2CC(N(Cc3ccc(Br)c(Cl)c3)C3CCOCC3)C2)cc1 (stereo not drawn) | < 1 µg/mL | < 6.4 ×10⁻⁶ cm/s | 
Cc1ccc(C2CC(N(Cc3ccc(Br)c(Cl)c3)C3CCNCC3)C2)cc1 (stereo not drawn) | 18.2 µg/mL (≈ 40.6 µM) | 806 ×10⁻⁶ cm/s | 
Cc1ccc(C2CC(N(Cc3ccc(Br)c(Cl)c3)C3CCNC3)C2)cc1 (stereo not drawn) | 23.2 µg/mL (≈ 53.5 µM) |  | 
Cc1ccc(C2CC(N(Cc3ccc(Br)c(Cl)c3)C3CCCNC3)C2)cc1 (stereo not drawn) | 13.3 µg/mL (≈ 29.7 µM) |  | 
Cc1ccc(C2CC(N(Cc3ccc(Br)c(Cl)c3)C3CCN(C(C)C)CC3)C2)cc1 (stereo not drawn) | 15.4 µg/mL (≈ 31.4 µM) | < 23.1 ×10⁻⁶ cm/s | 
